System: 6-OHDA rat model
Test: Hemi-parkinsonian (6-OHDA lesioned) rat model: prolongation of L-DOPA-induced contralateral rotations
Settings: second hour post administration (61-120 min); L-DOPA 50 mg/kg i.p. with vehicle (DMSO, i.p.); male Sprague-Dawley rats

N[C@@H](Cc1ccc(O)c(O)c1)C(=O)O [L-Dopa, L-3,4-dihydroxyphenylalanine]
total number of rotations observed with L-Dopa alone: less than 50 turns
